What was measured:
TNF-α = test: mouse LPS response, TNF-α in blood; format: in vivo; conditions: 2 mg/kg siRNA, with or without PN73; vs negative controls
Method: Normal [mouse type] mice were treated with various concentrations of LPS by intraperitoneal or intravenous injections. LPS responsiveness was determined by measuring levels of TNF-α in blood that was sampled various times following the LPS injection. A linear range of TNF-α induction was found between 10 ng and 100 ng for LPS injection by IP administration and up to 25 ng by IV injection. The average time for maximal TNF-α induction is 70 minutes following LPS injection.
The LPS induction was performed 24 hr following the last siRNA injection, 0.2 ug LPS and blood was collected at 90 minutes following LPS injection.
Three studies of 30 animals each dosing by the following schedules: 4 consecutive days; 8 consecutive days; and 11 consecutive days. LPS induction was performed at 24 hr post siRNA injection, 25 ng LPS (IP). Blood was drawn 70 minutes following LPS injection. […] Results from measurements and 8 and 11 days gave variable results owing to technical problems partly arising from repeated tail injections.

[1] = system: human TNF-α transgenic mice; test: RA paw score in human TNF-α transgenic mice; conditions: group TNF #4
Method: For human TNF-α animal disease models, two transgenic models were used. The tg197 mice were acquired from Pasteur Hellenic Institute (Athens, Greece), and the B6.SJL-Tg(TNF) N21 mice were purchased from Taconic, Inc. (Germantown, N.Y.). The genotypes of both human TNF-α transgenic mouse models were performed by suppliers. […] All treatments were by tail vein injection twice a week. […] A similar dose regimen was used for B6.SJL-Tg(TNF) N21 mice. Clinical scores were based on a previously described scoring system (2, 3) as follows: 0 (normal), 1 (edema or distortion of paw or ankle joints), 2 (distortion of paw and ankle joints), or 3 (ankylosis of wrist or ankle joints). The sum of all four paws was scored twice a week with a maximum score of 12 per mouse.
For Hellenic transgenic mice, RA scores were determined (blinded to treatment) using the following criteria: 0, normal; 1, edema or distortion of paw or ankle joints; 2 distortion of paw and ankle joints; 3, ankylosis of wrist or ankle joints.
Human NF-α expressing mice were purchase from the Hellenic Pasture Institute, Greece) at 5 weeks old. […] During the injection periods, plasma samples were collected for ELISA testing (R&D Systems, Cat#SSTA00C), and paw scores were taken twice a week as an accepted index of RA disease progression and therapeutic efficacy (Table 19).
Due to the difference in the starting point (some animals present with scores at earlier points), the scores have been adjusted to 0 for all animals in the experiments. Each paw is given a score between 0 and 3, with the highest score of 12, according to the following scoring index. • 0: Normal • 1: edema or distortion of paw or ankle joints • 2: distortion of paw and ankle joints • 3: ankylosis of wrist or ankle joints.

TNF-α mRNA = test: TNF-α knockdown in human monocytes (branch DNA);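 also: LPS-activated human CD14+ monocytes, TNF-α mRNA read by branched DNA assay and normalized to cypB mRNA, knockdown compared with random-sequence Qneg siRNA as negative control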
Description: For mRNA measurement, branch DNA technology from Genospectra (CA) was used according to manufacturer's specification. Human monocytes (CD14+) treated with LPS induce TNF-α-specific mRNA within approximately 2 hrs, followed by peak levels of TNF-α protein 2 hrs later. siRNAs were screened for knockdown activity by transfecting monocytes with siRNA candidate sequences using Lipofectamine 2000, treating infected cells with LPS, and measuring TNF-α mRNA levels approximately 16 hrs later.
To quantitate mRNA level in the cells, both house keeping gene (cypB) and target gene (TNF-α) mRNA were measured, and the reading for TNF-α was normalized with cypB to obtain relative luminescence unit.
Qneg represents a random siRNA sequence and functions as the negative control in these experiments.

Question: Which “circulating TNF-α resulting from LPS induction” value (TNF-α) does the source give for “AAUCCUCAGCCUCUUCUCCUU (siRNA; chemistry not fully specified) [LC13]” here?
Answer: lowered amounts of circulating TNF-α

Question: What about the “Relative effect of siRNA, paw score” value [1] of the same sequence?
Answer: Overall low paw score

Question: What about the “TNF-α knockdown activity (FIG. 6-C)” value (TNF-α mRNA; absence of PN73, 0-2.5 nM) of the same sequence?
Answer: little knockdown activity

Question: And the “KD (%) TNF-α” value (TNF-α mRNA; siRNA 4 nM complexed with 1.6 uM PN73)?
Answer: 48.29%

Question: And the “KD (%) TNF-α” value (TNF-α mRNA; siRNA 4 nM complexed with 1.6 uM PN509)?
Answer: 25.04%

Question: What about the “KD (%) TNF-α” value (TNF-α mRNA; siRNA 20 nM complexed with 0.5 uM PN250) of the same sequence?
Answer: 20.65%

Question: What about the “KD (%) TNF-α” value (TNF-α mRNA; siRNA 20 nM complexed with 0.75 uM PN250) of the same sequence?
Answer: 18.04%

Question: And the “KD (%) TNF-α” value (TNF-α mRNA; siRNA 20 nM complexed with 1 uM PN250)?
Answer: 31.35%

Question: What about the “decrease in TNF-α gene expression relative to Qneg control (FIG. 6-B)” value (TNF-α mRNA; siRNA complexed with PN73 1:1, 0-2.5 nM) of the same sequence?
Answer: ~15%

Source: patent US20100113332A1, “METHOD OF TREATING AN INFLAMMATORY DISEASE BY DOUBLE STRANDED RIBONUCLEIC ACID” (NASTECH PHARMACEUTICAL COMPANY INC., priority 2004, published 2010)
